Here are results for one substance from article PMC9890698 (BMC Biology, 2023).

Several values for one entry are separate records, joined by “and”; a condition that tells them apart may be missing. Equal entries are not always repeated.

Experiment [1] concerns the target T1, Human P2Y1-R (Homo sapiens, UniProt P47900).
T1 construct: expressed in transfected cells; host or cells: HEK293T/17
As to the kind of experiment: Gαq protein activation BRET2 assay (Gαq-RLuc8/GFP2-Gγ2/Gβ1) in HEK293T cells expressing P2Y1-R. It is filed as cell-based. Conditions: Fig. S2a, P2Y1-R, individual replicates. From the text: (§1) As previously described, using a BRET^2 (bioluminescence resonance energy transfer)-based assay, we directly monitored the basal Gαq protein activation by measuring the interaction between Gαq and Gγ2 subunits of the Gαqβ1γ2 heterotrimer complex. Indeed, this assay is based on the non-radiative transfer between the Renilla reniformis luciferase (RLuc8) energy donor fused to the Gαq protein subunit and the fluorescent GFP2 energy acceptor fused to Gγ2 protein subunit (Fig. 1a). […] By contrast, ligand-independent constitutive receptor activation or agonist-induced receptor activation will promote Gαq/Gγ2 subunit dissociation, thereby leading to a decrease of the basal BRET signal (Fig. 1a). […] To preclude any P2Y1-R activation by a passive release of ADP by HEK293T cells, we performed similar experiments in the presence of high concentration of apyrase (0.2U/mL) to degrade any trace of ADP in the medium (Additional File 2: Fig. S2a). Under these conditions, P2Y1-R expression still induces a marked and significant decrease of the basal BRET signal compared to control cells (pcDNA3.1), thereby supporting a P2Y1-R-dependent constitutive activation of Gαq protein. […] Of note, because P2Y1-R and AT1-R were respectively Myc- and HA-tagged and were thus detected using different primary antibodies, their expression at the cell surface cannot be compared between each other’s.
(§2) Human P2Y1-R (NCBI Reference Sequence: NM_002563.2) and P2Y12-R (NCBI Reference Sequence: NM_022788.3) were fused to double Myc epitope and rat AT1-R (NCBI Reference Sequence: NM_030985.4) to HA tag in N-terminus extracellular region. Alternatively, receptors were also fused to Venus tag in C-terminus intracellular region. Plasmids encoding Gαq-RLuc8, GFP2-Gγ2 and untagged Gβ1 were previously described. ADP was purchased from Sigma-Aldrich/Merck (Darmstadt, Germany). […] The Gq inhibitor (FR900359) was kindly supplied by Evi Kostenis (University of Bonn. Germany).
G protein activation and β-arrestin 2 recruitment were performed as previously described. Briefly, vectors encoding receptors, Gαq-RLuc8, GFP2-Gγ2, Gβ1, or β-arrestin 2 were transiently cotransfected into HEK293T/17 cells as indicated in the figure legends. Forty-eight hours after transfection, cells were washed and resuspended in PBS containing 0.1% (w/v) glucose at room temperature and then distributed (80 μg proteins/well) in a 96-well microplate (PerkinElmer). For G protein activation experiments (BRET^2), cells were incubated in the absence (basal BRET signal) or in the presence of ligand for 1 minute. BRET signal between RLuc8 and GFP2 was measured after addition of the luciferase substrate coelenterazine 400a (5 μM). For β-arrestin 2 recruitment (BRET^1), cells were stimulated with ligands for 5 or 15 min. BRET signal was recorded after incubation with coelenterazine h (5 μM) for 8 min. For kinetics studies, BRET signal between RLuc and Venus was recorded at 20-s intervals at basal state for the 2 first minutes and then for 5 min after ligand injection. For saturation curves (BRET^1), the expression level of Venus- or RLuc-tagged protein was determined by direct measurement of total fluorescence and luminescence respectively. Total fluorescence was first measured with an excitation filter at 485 nm and an emission filter at 520 nm. Then, the same sample was incubated for 8 minutes with 5 μM coelenterazine h and the total luminescence was measured. BRET^2 and BRET^1 readings were collected using a modified Infinite F500 (Tecan Group Ltd). The BRET^2 signal was calculated by the ratio of emission of GFP2 (510–540 nm) to RLuc8 (370–450 nm) and the BRET^1 signal by the ratio of emission of Venus (520–570 nm) to RLuc (370–480 nm). […]
On the technique in general: Bioluminescence resonance energy transfer reports proximity on the nanometre scale.

Experiment [2] concerns Gαq protein in HEK293T cells (pcDNA3.1). Description: Gαq protein activation BRET2 assay in control HEK293T cells without receptor (pcDNA3.1 / 0 μg). It counts as cell-based, Human. Conditions: Fig. S2a, pcDNA3.1, individual replicates.
Excerpt: as §1
G protein activation and β-arrestin 2 recruitment were performed as previously described. […] BRET signal between RLuc8 and GFP2 was measured after addition of the luciferase substrate coelenterazine 400a (5 μM). […] BRET signal was recorded after incubation with coelenterazine h (5 μM) for 8 min. For kinetics studies, BRET signal between RLuc and Venus was recorded at 20-s intervals at basal state for the 2 first minutes and then for 5 min after ligand injection. For saturation curves (BRET^1), the expression level of Venus- or RLuc-tagged protein was determined by direct measurement of total fluorescence and luminescence respectively. Total fluorescence was first measured with an excitation filter at 485 nm and an emission filter at 520 nm. Then, the same sample was incubated for 8 minutes with 5 μM coelenterazine h and the total luminescence was measured. BRET^2 and BRET^1 readings were collected using a modified Infinite F500 (Tecan Group Ltd). The BRET^2 signal was calculated by the ratio of emission of GFP2 (510–540 nm) to RLuc8 (370–450 nm) and the BRET^1 signal by the ratio of emission of Venus (520–570 nm) to RLuc (370–480 nm). Sometimes, results are expressed as the Net BRET computed by deducting the BRET background signal (obtained in the presence of the energy donor alone) from the BRET signal (acquired from cells expressing both the energy donor and acceptor).

The target of experiment [3] is T1, Human P2Y1-R. As to the kind of experiment: β-arrestin 2 recruitment BRET1 assay (β-arrestin 2-RLuc / P2Y1-R-Venus) in HEK293T cells. Conditions: Fig. S5; P2Y1-R; (+) apyrase; individual replicates. It is filed as cell-based.
Excerpt: We assessed β-arrestin 2 recruitment to the receptor using BRET^1 assay. The assay measures the interaction between β-arrestin 2 fused to the Renilla reniformis luciferase (RLuc) energy donor and the receptor fused to fluorescent Venus energy acceptor (Fig. 3a). The recruitment of cytosolic β-arrestin 2 to the receptor at the plasma membrane in the presence of an agonist will promote a significant increase of the BRET signal compared to the basal state, reflecting the close proximity between the β-arrestin 2 energy donor and the receptor energy acceptor [22].
as §2
G protein activation and β-arrestin 2 recruitment were performed as previously described. Briefly, vectors encoding receptors, Gαq-RLuc8, GFP2-Gγ2, Gβ1, or β-arrestin 2 were transiently cotransfected into HEK293T/17 cells as indicated in the figure legends. Forty-eight hours after transfection, cells were washed and resuspended in PBS containing 0.1% (w/v) glucose at room temperature and then distributed (80 μg proteins/well) in a 96-well microplate (PerkinElmer). For G protein activation experiments (BRET^2), cells were incubated in the absence (basal BRET signal) or in the presence of ligand for 1 minute. BRET signal between RLuc8 and GFP2 was measured after addition of the luciferase substrate coelenterazine 400a (5 μM). For β-arrestin 2 recruitment (BRET^1), cells were stimulated with ligands for 5 or 15 min. BRET signal was recorded after incubation with coelenterazine h (5 μM) for 8 min. For kinetics studies, BRET signal between RLuc and Venus was recorded at 20-s intervals at basal state for the 2 first minutes and then for 5 min after ligand injection. For saturation curves (BRET^1), the expression level of Venus- or RLuc-tagged protein was determined by direct measurement of total fluorescence and luminescence respectively. Total fluorescence was first measured with an excitation filter at 485 nm and an emission filter at 520 nm. Then, the same sample was incubated for 8 minutes with 5 μM coelenterazine h and the total luminescence was measured. BRET^2 and BRET^1 readings were collected using a modified Infinite F500 (Tecan Group Ltd). The BRET^2 signal was calculated by the ratio of emission of GFP2 (510–540 nm) to RLuc8 (370–450 nm) and the BRET^1 signal by the ratio of emission of Venus (520–570 nm) to RLuc (370–480 nm). Sometimes, results are expressed as the Net BRET computed by deducting the BRET background signal (obtained in the presence of the energy donor alone) from the BRET signal (acquired from cells expressing both the energy donor and acceptor).
Background: Activated receptors often draw arrestin, which recruitment assays turn into a signal.

The target of experiment [4] is T2, Human P2Y12-R (Homo sapiens, UniProt Q9H244).
T2 construct: expressed in transfected cells; host or cells: HEK293T/17
T2 sequence (Q9H244 whole entry): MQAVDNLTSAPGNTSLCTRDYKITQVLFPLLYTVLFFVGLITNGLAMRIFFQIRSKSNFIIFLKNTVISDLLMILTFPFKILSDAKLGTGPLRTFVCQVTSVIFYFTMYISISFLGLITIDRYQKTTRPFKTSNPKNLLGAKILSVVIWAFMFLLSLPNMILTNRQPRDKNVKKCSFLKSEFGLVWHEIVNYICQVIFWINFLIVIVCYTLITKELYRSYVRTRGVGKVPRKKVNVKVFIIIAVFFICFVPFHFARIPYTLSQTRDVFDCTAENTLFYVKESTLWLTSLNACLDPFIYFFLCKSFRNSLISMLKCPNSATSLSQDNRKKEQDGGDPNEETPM
As to the kind of experiment: β-arrestin 2 recruitment BRET1 assay (β-arrestin 2-RLuc / P2Y12-R-Venus) in HEK293T cells. It counts as cell-based. The settings on record: Fig. S5; P2Y12-R; (+) apyrase; individual replicates. From the text:
We assessed β-arrestin 2 recruitment to the receptor using BRET^1 assay. The assay measures the interaction between β-arrestin 2 fused to the Renilla reniformis luciferase (RLuc) energy donor and the receptor fused to fluorescent Venus energy acceptor (Fig. 3a). The recruitment of cytosolic β-arrestin 2 to the receptor at the plasma membrane in the presence of an agonist will promote a significant increase of the BRET signal compared to the basal state, reflecting the close proximity between the β-arrestin 2 energy donor and the receptor energy acceptor [22]. […]
G protein activation and β-arrestin 2 recruitment were performed as previously described. […] BRET signal between RLuc8 and GFP2 was measured after addition of the luciferase substrate coelenterazine 400a (5 μM). […] BRET signal was recorded after incubation with coelenterazine h (5 μM) for 8 min. For kinetics studies, BRET signal between RLuc and Venus was recorded at 20-s intervals at basal state for the 2 first minutes and then for 5 min after ligand injection. For saturation curves (BRET^1), the expression level of Venus- or RLuc-tagged protein was determined by direct measurement of total fluorescence and luminescence respectively. Total fluorescence was first measured with an excitation filter at 485 nm and an emission filter at 520 nm. […] BRET^2 and BRET^1 readings were collected using a modified Infinite F500 (Tecan Group Ltd). […]

Experiment [5] has as its system HEK293T cells (pcDNA3.1). Description: β-arrestin 2 BRET1 basal signal in control HEK293T cells without receptor (pcDNA3.1). The settings on record: Fig. S5, (+) apyrase, individual replicates. It counts as cell-based, Human. The source says:
Supplement 12915_2023_1528_MOESM8_ESM.xlsx, sheet "Fig. S5" | column: (+) apyrase

T1 sequence (P47900 whole entry): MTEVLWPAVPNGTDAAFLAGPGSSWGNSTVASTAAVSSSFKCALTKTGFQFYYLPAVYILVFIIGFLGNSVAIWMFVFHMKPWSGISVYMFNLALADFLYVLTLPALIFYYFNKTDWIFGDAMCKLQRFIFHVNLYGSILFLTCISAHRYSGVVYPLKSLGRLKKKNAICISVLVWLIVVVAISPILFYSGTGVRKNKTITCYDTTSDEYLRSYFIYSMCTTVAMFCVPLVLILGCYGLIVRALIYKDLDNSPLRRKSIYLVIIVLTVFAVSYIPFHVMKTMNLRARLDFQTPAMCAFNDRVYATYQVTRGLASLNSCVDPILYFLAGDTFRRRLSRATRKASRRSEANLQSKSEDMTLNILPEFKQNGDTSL

Regarding apyrase, the “Basal BRET signal” value was 0.9128 and 0.7477 and 0.6192 and 0.8378 in experiment [1] ((+) apyrase 1 min); 0.6209 and 0.8174 and 0.9018 and 0.7551 in experiment [1] ((+) apyrase 5 min); 0.6295 and 0.8302 and 0.9025 and 0.7259 in experiment [1] ((+) apyrase 10 min); 2.035 and 1.852 and 1.218 and 1.795 in experiment [2] ((+) apyrase 1 min); 1.227 and 1.746 and 2.0243 and 1.801 in experiment [2] ((+) apyrase 5 min); 1.204 and 1.749 and 1.987 and 1.796 in experiment [2] ((+) apyrase 10 min). Moreover, the “Basal BRET signal” value in experiment [3] is 0.9766 and 1.039 and 0.9705 and 1.011; in experiment [4], 0.9157 and 0.9699 and 0.8998 and 0.9124; in experiment [5], 0.8767 and 0.9382 and 0.883 and 0.8696.
